Test system: 485368-065-R4-J2-PDC spheroids with HUVEC/MSC, viability
Test: Anticancer human tumor 485368-065-R4-J2-PDC patient-derived pancreatic carcinoma cell line growth inhibition [TAK]
Conditions: for IC50: curve of first compound; for viability, T/C: stronger effect = lower value
From the text: Combinatorial screen of targeted agents with TAK-243 and ipatasertib in multi-cell type tumor spheroids
A high-throughput screen of multi-cell type tumor spheroids was designed to identify active combinations of targeted small molecules and TAK-243 or ipatasertib. Complex spheroids include a stromal component modeled by human endothelial cells (HUVEC) and fibroblasts modeled by human mesenchymal stem cells (MSCs). The concentration ranges selected for each drug and investigational agent were based upon clinically achievable concentrations if the clinical Cmax of the agent was known.
Compounds. The drugs and investigational agents: TAK-243 (785004), ipatasertib (767898), everolimus (733504), selumetinib (741078), bortezomib (756655), trametinib (758246), ixazomib (758254), vemurafenib (761431), dabrafenib (764134), sapanisertib (764658), alpelisib (765974), and copanlisib (816437), were obtained from the National Cancer Institute (NCI) Developmental Therapeutics Program Chemical Repository. The FDA-approved anticancer drug set is available from the NCI Developmental Therapeutics Program. […] The stock solutions were prepared in dimethyl sulfoxide (DMSO, Sigma-Aldrich, St. Louis, MO, cat. D2650) at 800-fold the tested concentration and stored at -70 degrees C prior to their use. All drugs and investigational agents were tested over a range starting from a high concentration at or near the clinical Cmax and decreasing in half-log increments. If the clinical Cmax for an agent had not been determined, the highest concentration tested was 10 microM.
NCI60 Cell Culture. NCI60 cell lines were obtained from the NCI Developmental Therapeutics Program Tumor Repository. For each lot of cells, the Repository performed Applied Biosystems AmpFLSTR Identifiler testing with PCR amplification to confirm consistency with the published Identifier STR profile for each cell line. Cells were kept in continuous culture for no more than 20 passages. The optimal seeding densities for each of the cell lines at each time point assessed were determined prior to performing the concentration response studies. Briefly, the NCI60 human tumor lines were grown as monolayers in RPMI 1640 medium supplemented with 10% FBS and 2 mmol/L L-glutamine.
An additional 2 lines were from the NCI60 cell line panel including melanomas, MALME-3M and SK-MEL-2. Pooled donor human umbilical vein endothelial cells (HUVEC, Lonza, cat. CC-2519) and human mesenchymal stem cells (hMSC, Lonza, cat. PT-2501) were purchased from Lonza (Walkersville, MD).
PDMR cell lines were grown in complete medium (DC medium): Dulbecco's modified Eagle's medium (DMEM)/F12 supplemented with 5% fetal bovine serum (FBS), 2 mM L-glutamine, 100 U/mL penicillin and 100 µg/ml streptomycin, 0.4 µg/ml hydrocortisone, 10 ng/ml epidermal growth factor (EGF) recombinant human protein, 24 µg/mL adenine, and 0.1 mg/mL primocin. During culture from frozen stock vials, PDMR cells were cultured in the same medium containing 10 µM Y-27632 (see Table 3). The PDCs were cultured in complete DMEM/F12 media without 10 microM Y-27632 dihydrochloride for at least two passages prior to the screen. The pooled donor HUVEC and hMSC were cultured in endothelial cell growth medium 2 (PromoCell, Heidelberg, Germany, cat. C-22011) and mesenchymal stem cell growth medium 2 (PromoCell, cat. C-28009), respectively. For all experiments, HUVEC and hMSC were used at passages </=5.
For the pre-screen, cell seeding densities were determined from a titration spanning the range from 5,000 to 313 cells per well. The mct-spheroids including 60% malignant cells, 25% HUVEC and 15% MSC dispensed as a mixture into U-bottom Ultra-Low Attachment 384-well plates (Corning, NY)
High-throughput Drug Combination Screening.
Prior to their inoculation into 384-well plates, malignant cells, HUVEC, and hMSC were removed from T flasks using TrypLE express (Thermo Fisher Scientific, cat. 12605036) and harvested by centrifugation for 5 min at 233 x g. […]
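Further: spheroids exposed to compounds for seven days before readout.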
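Wherever viability, T/C is given: 100% = DMSO vehicle control wells.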

CC(C)CC(NC(=O)C(Cc1ccccc1)NC(=O)c1cnccn1)B(O)O (stereo not given) + CC(C)NCC(C(=O)N1CCN(c2ncnc3c2C(C)CC3O)CC1)c1ccc(Cl)cc1
IC50 (second compound 0.3 µM): 5.9 nM | IC50 (second compound 0.949 µM): 5.92 nM | IC50 (second compound 3 µM): 5.94 nM | IC50 (second compound 9.49 µM): 5.13 nM | IC50 (second compound 30 µM): 4.63 nM | viability, T/C (second compound 0.3 µM, first compound 31.6 pM): 98.2% | viability, T/C (second compound 0.3 µM, first compound 0.0001 µM): 96.9% | viability, T/C (second compound 0.3 µM, first compound 0.000316 µM): 90.6% | viability, T/C (second compound 0.3 µM, first compound 0.001 µM): 92.2% | viability, T/C (second compound 0.3 µM, first compound 0.00316 µM): 108% | viability, T/C (second compound 0.3 µM, first compound 0.01 µM): 10% | viability, T/C (second compound 0.949 µM, first compound 31.6 pM): 94.5% | viability, T/C (second compound 0.949 µM, first compound 0.0001 µM): 94.3% | viability, T/C (second compound 0.949 µM, first compound 0.000316 µM): 103% | viability, T/C (second compound 0.949 µM, first compound 0.001 µM): 98.4% | viability, T/C (second compound 0.949 µM, first compound 0.00316 µM): 102% | viability, T/C (second compound 0.949 µM, first compound 0.01 µM): 9.62% | viability, T/C (second compound 3 µM, first compound 31.6 pM): 94.3% | viability, T/C (second compound 3 µM, first compound 0.0001 µM): 101% | viability, T/C (second compound 3 µM, first compound 0.000316 µM): 98.5% | viability, T/C (second compound 3 µM, first compound 0.001 µM): 92.2% | viability, T/C (second compound 3 µM, first compound 0.00316 µM): 94.9% | viability, T/C (second compound 3 µM, first compound 0.01 µM): 12.9% | viability, T/C (second compound 9.49 µM, first compound 31.6 pM): 97% | viability, T/C (second compound 9.49 µM, first compound 0.0001 µM): 94.2% | viability, T/C (second compound 9.49 µM, first compound 0.000316 µM): 91.1% | viability, T/C (second compound 9.49 µM, first compound 0.001 µM): 95.2% | viability, T/C (second compound 9.49 µM, first compound 0.00316 µM): 79.7% | viability, T/C (second compound 9.49 µM, first compound 0.01 µM): 8.65% | viability, T/C (second compound 30 µM, first compound 31.6 pM): 78.5% | viability, T/C (second compound 30 µM, first compound 0.0001 µM): 81.9% | viability, T/C (second compound 30 µM, first compound 0.000316 µM): 77.6% | viability, T/C (second compound 30 µM, first compound 0.001 µM): 78% | viability, T/C (second compound 30 µM, first compound 0.00316 µM): 71.2% | viability, T/C (second compound 30 µM, first compound 0.01 µM): 6.97%

Cn1cnc2c(F)c(Nc3ccc(Br)cc3Cl)c(C(=O)NOCCO)cc21 + CC(C)NCC(C(=O)N1CCN(c2ncnc3c2C(C)CC3O)CC1)c1ccc(Cl)cc1
IC50 (second compound 0.3 µM): 261 nM | IC50 (second compound 0.949 µM): 51 nM | IC50 (second compound 3 µM): 32.6 nM | IC50 (second compound 9.49 µM): 17.1 nM | IC50 (second compound 30 µM): 9.58 nM | viability, T/C (second compound 0.3 µM, first compound 0.00949 µM): 76.1% | viability, T/C (second compound 0.3 µM, first compound 0.03 µM): 69.6% | viability, T/C (second compound 0.3 µM, first compound 0.0949 µM): 59% | viability, T/C (second compound 0.3 µM, first compound 0.3 µM): 48.5% | viability, T/C (second compound 0.3 µM, first compound 0.949 µM): 37% | viability, T/C (second compound 0.3 µM, first compound 3 µM): 23% | viability, T/C (second compound 0.949 µM, first compound 0.00949 µM): 70% | viability, T/C (second compound 0.949 µM, first compound 0.03 µM): 56.2% | viability, T/C (second compound 0.949 µM, first compound 0.0949 µM): 42.9% | viability, T/C (second compound 0.949 µM, first compound 0.3 µM): 30.3% | viability, T/C (second compound 0.949 µM, first compound 0.949 µM): 21.7% | viability, T/C (second compound 0.949 µM, first compound 3 µM): 13.5% | viability, T/C (second compound 3 µM, first compound 0.00949 µM): 72.5% | viability, T/C (second compound 3 µM, first compound 0.03 µM): 51.6% | viability, T/C (second compound 3 µM, first compound 0.0949 µM): 31.2% | viability, T/C (second compound 3 µM, first compound 0.3 µM): 19.4% | viability, T/C (second compound 3 µM, first compound 0.949 µM): 13.6% | viability, T/C (second compound 3 µM, first compound 3 µM): 10.7% | viability, T/C (second compound 9.49 µM, first compound 0.00949 µM): 60.4% | viability, T/C (second compound 9.49 µM, first compound 0.03 µM): 40.6% | viability, T/C (second compound 9.49 µM, first compound 0.0949 µM): 24.1% | viability, T/C (second compound 9.49 µM, first compound 0.3 µM): 17.4% | viability, T/C (second compound 9.49 µM, first compound 0.949 µM): 10.9% | viability, T/C (second compound 9.49 µM, first compound 3 µM): 8.27% | viability, T/C (second compound 30 µM, first compound 0.00949 µM): 50.1% | viability, T/C (second compound 30 µM, first compound 0.03 µM): 33.9% | viability, T/C (second compound 30 µM, first compound 0.0949 µM): 21.2% | viability, T/C (second compound 30 µM, first compound 0.3 µM): 15.5% | viability, T/C (second compound 30 µM, first compound 0.949 µM): 11.1% | viability, T/C (second compound 30 µM, first compound 3 µM): 9.61%
